Laboratory results published in the supplement of paper PMC10307832.

What was measured:
Assay in all cases: relative viability (nuclei count vs DMSO), 5 days (fraction); higher = more cells survive
Adavosertib + Lapatinib = compound: C=CCn1c(=O)c2cnc(Nc3ccc(N4CCN(C)CC4)cc3)nc2n1-c1cccc(C(C)(C)O)n1 [Adavosertib] + CS(=O)(=O)CCNCc1ccc(-c2ccc3ncnc(Nc4ccc(OCc5cccc(F)c5)c(Cl)c4)c3c2)o1 [Lapatinib] (partner 2 µM)
Summary of the method: (§1)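 Values are medians from duplicate plates. Each reflects relative viability, defined as the nuclei count of treated wells over that of vehicle wells. Lung cancer cell lines in 1536-well plates were pin-tool dosed one day after seeding with one drug alone or with a fixed anchor-drug dose plus five library-drug doses (not always all listed) in √10 steps, then fixed, stained and imaged at 4× after 5 days.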

Nelarabine + Crizotinib = compound: COc1nc(N)nc2c1ncn2[C@@H]1O[C@H](CO)[C@@H](O)[C@@H]1O [Nelarabine] + C[C@@H](Oc1cc(-c2cnn(C3CCNCC3)c2)cnc1N)c1c(Cl)ccc(F)c1Cl [Crizotinib] (partner 1 µM)
Summary of the method: as §1

Nelarabine + Decitabine = compound: COc1nc(N)nc2c1ncn2[C@@H]1O[C@H](CO)[C@@H](O)[C@@H]1O [Nelarabine] + Nc1ncn([C@H]2C[C@H](O)[C@@H](CO)O2)c(=O)n1 [Decitabine] (partner 2 µM)
Summary of the method: as §1

Nelarabine + Olaparib = compound: COc1nc(N)nc2c1ncn2[C@@H]1O[C@H](CO)[C@@H](O)[C@@H]1O [Nelarabine] + O=C(c1cc(Cc2n[nH]c(=O)c3ccccc23)ccc1F)N1CCN(C(=O)C2CC2)CC1 [Olaparib] (partner 8 µM)
Summary of the method: as §1

Cell Line | relative viability (Adavosertib + Lapatinib; first compound 0.01 µM) | relative viability (Adavosertib + Lapatinib; first compound 0.03162 µM) | relative viability (Adavosertib + Lapatinib; first compound 0.1 µM) | relative viability (Adavosertib + Lapatinib; first compound 0.3162 µM) | relative viability (Nelarabine + Crizotinib; first compound 0.01 µM) | relative viability (Nelarabine + Crizotinib; first compound 0.03162 µM) | relative viability (Nelarabine + Crizotinib; first compound 0.1 µM) | relative viability (Nelarabine + Crizotinib; first compound 0.3162 µM) | relative viability (Nelarabine + Crizotinib; first compound 1 µM) | relative viability (Nelarabine + Decitabine; first compound 0.01 µM) | relative viability (Nelarabine + Decitabine; first compound 0.03162 µM) | relative viability (Nelarabine + Decitabine; first compound 0.1 µM) | relative viability (Nelarabine + Decitabine; first compound 0.3162 µM) | relative viability (Nelarabine + Decitabine; first compound 1 µM) | relative viability (Nelarabine + Olaparib; first compound 0.01 µM) | relative viability (Nelarabine + Olaparib; first compound 0.03162 µM) | relative viability (Nelarabine + Olaparib; first compound 0.1 µM) | relative viability (Nelarabine + Olaparib; first compound 0.3162 µM) | relative viability (Nelarabine + Olaparib; first compound 1 µM)
NCI-H1734 | 1.07 | 1.07 | 1.07 | 0.825 | 0.694 | 0.668 | 0.568 | 0.772 | 0.804 | 0.551 | 0.458 | 0.491 | 0.486 | 0.499 | 0.688 | 0.597 | 0.689 | 0.61 | 0.654
NCI-H1755 | 1.12 | 1.02 | 1.04 | 1.09 | 0.941 | 0.908 | 0.874 | 0.969 | 0.946 | 0.706 | 0.811 | 0.734 | 0.639 | 0.737 | 0.878 | 0.966 | 0.931 | 0.938 | 0.927
NCI-H1792 | 0.824 | 0.931 | 0.919 | 0.937 | 0.821 |  | 1.29 | 1.15 | 1.03 | 0.642 | 0.428 | 0.573 | 0.579 | 0.634 | 0.52 | 0.42 | 0.581 | 0.566 | 0.436
NCI-H1915 | 0.984 | 0.923 | 1.02 | 0.959 | 1.23 | 0.941 | 0.953 | 0.916 | 0.881 | 0.261 | 0.266 | 0.258 | 0.27 | 0.268 | 0.25 | 0.264 | 0.261 | 0.251 | 0.24
NCI-H1944 | 0.765 | 0.709 | 0.908 | 0.783 | 1.12 | 1.06 | 1.16 | 1.08 | 1.02 | 0.423 | 0.449 | 0.457 | 0.416 | 0.427 | 0.486 | 0.436 | 0.481 | 0.435 | 0.419
NCI-H1975 | 0.878 | 0.805 | 0.895 | 0.667 | 1.15 | 0.91 | 1.11 | 1.08 | 1.1 | 0.391 | 0.336 | 0.426 | 0.418 | 0.431 | 1.04 | 0.942 | 0.823 | 0.856 | 0.797
NCI-H1993 | 0.798 | 0.865 | 0.894 | 0.8 | 0.96 | 0.891 | 0.775 | 0.93 | 1.02 | 0.667 | 0.507 | 0.526 | 0.578 | 0.65 | 1.19 | 0.993 | 0.865 | 0.939 | 0.984
NCI-H2009 | 0.975 | 0.99 | 1.05 | 0.926 | 1.12 | 0.99 | 0.971 | 1.08 | 1.05 | 0.412 | 0.331 | 0.398 | 0.447 | 0.385 | 0.746 | 0.607 | 0.834 | 0.725 | 0.855
NCI-H2023 | 0.787 | 0.735 | 0.599 | 0.344 | 0.831 | 0.672 | 0.59 | 0.578 | 0.605 | 0.239 | 0.207 | 0.241 | 0.223 | 0.219 | 0.597 | 0.497 | 0.503 | 0.422 | 0.455
NCI-H2085 | 0.743 | 0.813 | 0.86 | 0.836 | 0.966 | 0.618 | 0.766 | 0.88 | 0.965 | 0.536 | 0.535 | 0.52 | 0.605 | 0.439 | 0.815 | 0.768 | 0.731 | 0.802 | 0.74
NCI-H2087 | 0.951 | 1.21 | 1.15 | 1.3 | 1.22 | 0.965 | 0.88 | 0.819 | 0.84 | 0.248 | 0.28 | 0.309 | 0.335 | 0.3 | 0.713 | 0.421 | 0.73 | 0.68 | 0.72
NCI-H2126 | 0.736 | 0.781 | 0.764 | 0.829 | 1.19 | 1.07 | 1.01 | 1.05 | 0.998 | 0.658 | 0.616 | 0.563 | 0.594 | 0.559 | 1.05 | 0.981 | 0.951 | 0.961 | 0.967
NCI-H2170 | 0.273 | 0.27 | 0.277 | 0.287 | 1.47 | 1.01 | 1.24 | 1.35 | 1.26 | 0.473 | 0.546 | 0.484 | 0.47 | 0.427 | 0.708 | 0.561 | 0.61 | 0.577 | 0.547
NCI-H2347 | 0.889 | 0.912 | 1.13 | 1.03 | 0.812 | 0.547 | 0.654 | 0.649 | 0.833 | 0.576 | 0.596 | 0.615 | 0.626 | 0.593 | 0.658 | 0.417 | 0.527 | 0.574 | 0.52
NCI-H2405 | 1.09 | 1.13 | 1.04 | 1.11 | 0.918 | 0.824 | 0.769 | 0.784 | 0.818 | 0.674 | 0.686 | 0.745 | 0.816 | 0.721 | 0.948 | 0.834 | 0.83 | 0.899 | 0.896
NCI-H3122 | 1.01 | 0.924 | 1.07 | 1.07 | 0.265 | 0.197 |  | 0.301 | 0.268 | 0.419 | 0.299 |  | 0.463 | 0.476 | 0.668 | 0.607 |  | 0.745 | 0.661
PC-3 [JPC-3] | 0.445 | 0.418 | 0.47 | 0.429 | 1.15 | 1.02 | 1.01 | 0.977 | 0.968 | 0.84 | 0.81 | 0.843 | 0.799 | 0.872 | 1.46 | 1.2 | 1.1 | 1.25 | 1.22
